This is an account of results in US6369042B1, “Antioxidative vitamin B6 analogs” (priority 1999, dated 2002).

For this assay, the system named is Rhinovirus infection. Description: Treatment of a rhinovirus infection (common cold) in a patient. The format is in vivo, human. The note with it: 50 mg orally in a water solution, after 15 minutes. On the procedure: A patient with a common katarrhalic infection (common cold) was treated orally with 50 mg of (2RS,4R)-2-[3-Hydroxy-5-(hydroxymethyl)-2-methyl-4-pyridinyl]-4-thiazolidine carboxylic acid in a water solution. After 15 minutes the disease symptoms disappeared.

Consider `Cc1ncc(CO)c(C2N[C@H](C(=O)O)CS2)c1O` (mixture of isomers) [(2RS,4R)-2-[3-Hydroxy-5-(hydroxymethyl)-2-methyl-4-pyridinyl]-4-thiazolidine carboxylic acid], for which the “disease symptoms of common katarrhalic infection (common cold)” value is on record as “disappeared”.
